From ChEMBL document CHEMBL1201862, “PubChem BioAssay data set” (2004)
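The compound was tested at five concentrations on cells cultured in 96-well plates, with a 48-hour exposure period. The concentration for 50% growth inhibition is given as GI50.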 Calls of active or inactive are those of the source. Cut-off read from the data, not from the text of the source: active = GI50 up to about 1.1 µM and inactive = higher.

Assays:
Experiment in all cases: NCI anticancer screen, dose series, 48 h
[1] = test system: ACHN
[2] = test system: CAKI-1
[3] = test system: EKVX
[4] = test system: HL-60
[5] = test system: K562
[6] = test system: Malme-3M
[7] = test system: NCI-H226
[8] = test system: NCI-H23
[9] = test system: NCI-H522
[10] = test system: OVCAR-3
[11] = test system: OVCAR-4
[12] = test system: SF-268
[13] = test system: SF-539
[14] = test system: UACC-257
[15] = test system: UACC-62
[16] = test system: HT-29
[17] = test system: RXF 393

Measured: GI50

COc1ccc(CC#N)c(OCc2ccccc2)c1
inactive: [1] 27 µM | [2] > 100 µM | [3] 30.7 µM | [4] > 10 µM | [5] 58.6 µM | [6] 22 µM | [7] 6.73 µM | [8] 77.8 µM | [9] 38.9 µM | [10] 80.5 µM | [11] 71.6 µM | [12] 68.4 µM | [13] > 100 µM | [14] 39.3 µM | [15] 28.8 µM

ClC(Cl)[Si]12OCCN(CCO1)CCO2
inactive: [1] > 100 µM | [2] > 100 µM | [4] > 100 µM | [16] > 100 µM | [5] > 100 µM | [6] > 100 µM | [8] > 100 µM | [9] > 100 µM | [10] > 100 µM | [17] > 100 µM | [12] > 100 µM | [13] > 100 µM | [14] > 100 µM | [15] > 100 µM

COC(=O)C1(O)CC(=O)CCC1c1ccc(OC)cc1 (stereo unspecified)
inactive: [1] > 100 µM | [2] > 100 µM | [3] > 100 µM | [4] > 100 µM | [16] > 100 µM | [5] > 100 µM | [6] > 100 µM | [7] > 100 µM | [8] > 100 µM | [9] > 100 µM | [10] > 100 µM | [11] > 100 µM | [12] > 100 µM | [13] > 100 µM | [14] > 100 µM | [15] > 100 µM

C(=N\CC/N=C/c1cccc2ccccc12)/c1cccc2ccccc12
inactive: [1] > 100 µM | [2] > 100 µM | [3] > 100 µM | [16] > 100 µM | [5] > 100 µM | [6] > 100 µM | [7] > 100 µM | [8] > 100 µM | [9] > 100 µM | [11] > 100 µM | [17] > 100 µM | [13] > 100 µM | [14] > 100 µM | [15] > 100 µM

C=CCC1OC(C)(C)Oc2ccc(OCOCCOC)cc21 (stereo unspecified)
inactive: [1] > 100 µM | [2] > 100 µM | [3] > 100 µM | [16] > 100 µM | [5] > 100 µM | [6] > 100 µM | [7] > 10 µM | [8] > 100 µM | [10] > 100 µM | [11] > 100 µM | [17] > 100 µM | [12] > 100 µM | [13] > 100 µM | [14] > 100 µM | [15] > 100 µM

Cc1ccccc1NC(=O)C1C(=O)N(c2ccccc2C)C(=O)/C1=N\NC(N)=O (stereo unspecified)
inactive: [1] > 100 µM | [2] > 100 µM | [3] > 100 µM | [4] > 100 µM | [16] > 100 µM | [5] > 100 µM | [6] > 100 µM | [8] > 100 µM | [9] > 100 µM | [10] > 100 µM | [11] > 100 µM | [17] > 100 µM | [12] > 100 µM | [13] > 100 µM | [14] > 100 µM | [15] > 100 µM

CCN(C1=CC(=O)NC2CCCCN12)c1ccccc1 (stereo unspecified)
inactive: [1] > 100 µM | [2] > 100 µM | [3] > 100 µM | [16] > 100 µM | [5] > 100 µM | [6] > 100 µM | [8] > 100 µM | [10] > 100 µM | [11] > 100 µM | [17] > 100 µM | [12] > 100 µM | [13] > 100 µM | [14] > 100 µM | [15] > 100 µM

COc1c(OC(C)=O)ccc(/C=C2\N=C(C)OC2=O)c1[N+](=O)[O-]
inactive: [1] > 100 µM | [2] > 100 µM | [4] > 100 µM | [16] > 100 µM | [5] > 100 µM | [6] > 100 µM | [9] > 100 µM | [11] > 100 µM | [17] > 100 µM | [12] > 100 µM | [13] > 100 µM | [14] > 100 µM | [15] > 100 µM

NC1=NN(c2ccccc2)C(=O)C1C(=O)C(=O)Nc1ccccc1 (stereo unspecified)
inactive: [1] > 100 µM | [2] > 100 µM | [3] > 100 µM | [4] > 100 µM | [16] > 100 µM | [5] > 100 µM | [6] > 100 µM | [7] > 100 µM | [8] > 100 µM | [9] > 100 µM | [10] > 100 µM | [11] > 100 µM | [12] > 100 µM | [13] > 100 µM | [14] > 100 µM | [15] > 100 µM

O=C(O)/C(=C/c1c(O)ccc2ccccc12)c1csc(-c2nc(/C(=C\c3c(O)ccc4ccccc34)C(=O)O)cs2)n1
inactive: [1] 4.83 µM | [3] 41.2 µM | [4] 8.45 µM | [16] 22.2 µM | [5] 15.8 µM | [6] 1.61 µM | [7] 2.49 µM | [8] 9.55 µM | [10] 13.3 µM | [17] 3.21 µM | [12] 10 µM | [13] 6.17 µM | [14] 14.9 µM | [15] 10.4 µM

Cc1cc2ncn(-c3nc4ccccc4nc3C(C#N)S(C)(=O)=O)c2cc1C (stereo unspecified)
inactive: [1] > 100 µM | [2] > 100 µM | [3] > 100 µM | [4] > 100 µM | [5] > 100 µM | [6] > 100 µM | [7] 13.4 µM | [8] > 100 µM | [9] > 100 µM | [10] > 100 µM | [11] > 100 µM | [12] > 100 µM | [13] > 100 µM | [14] > 100 µM | [15] > 100 µM

COc1ccc(NC(=O)/C(Cc2cc(=O)oc3cc(O)ccc23)=N\NC(C)(C)C)c(OC)c1
inactive: [1] > 100 µM | [2] > 100 µM | [3] 12.6 µM | [4] > 100 µM | [16] > 100 µM | [5] > 100 µM | [6] > 100 µM | [7] > 100 µM | [8] > 100 µM | [9] > 100 µM | [10] > 100 µM | [11] > 100 µM | [12] > 100 µM | [13] > 100 µM | [14] > 100 µM | [15] > 100 µM

CCN(CC)CCCCC1CCN(CC(=O)N2c3cc(Cl)ccc3NC(=O)CC2C)CC1 (stereo unspecified)
inactive: [1] > 100 µM | [2] > 100 µM | [4] > 100 µM | [16] > 100 µM | [5] 79.6 µM | [6] > 100 µM | [7] > 100 µM | [8] > 100 µM | [10] > 100 µM | [11] > 100 µM | [12] > 100 µM | [14] > 100 µM | [15] > 100 µM
